Reference: patent US5262519A, “GRF analogs XI” (The Salk Institute for Biological Studies, priority 1991, dated 1993)
Square brackets hold non-standard residues; d marks the D form. Ends that are not written are not given here. Peptide text beside a SMILES is read from it. Nle = CCCC[C@H](N)C(=O)O

Tested on: cells of rat pituitary glands
Assay: in vitro release of growth hormone from cultured rat pituitary cells, GH measured by radioimmunoassay
Type: cell-based
Conditions: potency for GH release relative to standard hGRF(1-40)-OH = 1.0; equimolar concentrations; 3 to 4 hours incubation; range in parentheses
Procedure: To determine the relative effectiveness of synthetic peptides to promote the release of growth hormone, in vitro assays are carried out using synthetic hpGRF(1-40)-OH as a standard in side-by-side comparison with equimolar concentrations of the representative analogs which have been synthesized. Cultures are used which include cells of rat pituitary glands removed some three to five days previously. Such cultures are considered optimal for the secretion of growth hormone and are used for the comparative testing, in the general manner described in Vale et al. Endocrinology, 91, 562-572 (1972) and as more particularly described in Vale et al. Endocrinology, 112, 1553-1555 (1983). Incubation with the substance to be tested is carried out for 3 to 4 hours, and aliquots of the culture medium are removed and processed to measure their contents in immunoreactive GH(ir GH) by a well-characterized radioimmunoassay.

Compound | In Vitro Potencies
CCCC[C@H](NC(=O)[C@@H](NC(=O)[C@H](CC(=O)O)NC(=O)[C@H](CCC(N)=O)NC(=O)[C@H](CC(C)C)NC(=O)[C@H](CC(C)C)NC(=O)[C@H](CCCCN)NC(=O)[C@H](CCCNC(=N)N)NC(=O)[C@H](C)NC(=O)[C@H](CO)NC(=O)[C@H](CC(C)C)NC(=O)[C@H](CCC(N)=O)NC(=O)CNC(=O)[C@H](CC(C)C)NC(=O)[C@@H](NC(=O)[C@H](CCCCN)NC(=O)[C@H](CCCNC(=N)N)NC(=O)[C@H](Cc1ccc(O)cc1)NC(=O)[C@H](CO)NC(=O)[C@H](C)NC(=O)[C@@H](NC(=O)[C@H](Cc1ccccc1)NC(=O)[C@@H](NC(=O)[C@H](C)NC(=O)[C@H](CC(=O)O)NC(=O)[C@H](C)NC(=O)[C@@H](N)Cc1ccc(O)cc1)[C@@H](C)CC)[C@@H](C)O)C(C)C)[C@@H](C)CC)C(=O)N[C@@H](CO)C(=O)N[C@@H](CCCNC(=N)N)C(N)=O [Example No. 1, [Ala^8, Nle^27]-hGRF(1-29)-NH2] (H-YADAIFTASYRKVLGQLSARKLLQDI[Nle]SR-NH2) | 2.143(1.178-4.065)
CCCC[C@H](NC(=O)[C@@H](NC(=O)[C@H](CC(=O)O)NC(=O)[C@H](C)NC(=O)[C@H](CC(C)C)NC(=O)[C@H](CC(C)C)NC(=O)[C@H](CCCCN)NC(=O)[C@H](CCCNC(=N)N)NC(=O)[C@H](C)NC(=O)[C@H](CO)NC(=O)[C@H](CC(C)C)NC(=O)[C@H](CCC(N)=O)NC(=O)CNC(=O)[C@H](CC(C)C)NC(=O)[C@@H](NC(=O)[C@H](CCCCN)NC(=O)[C@H](CCCNC(=N)N)NC(=O)[C@H](Cc1ccc(O)cc1)NC(=O)[C@H](CO)NC(=O)[C@H](CC(N)=O)NC(=O)[C@@H](NC(=O)[C@H](Cc1ccccc1)NC(=O)[C@@H](NC(=O)[C@H](C)NC(=O)[C@H](CC(=O)O)NC(=O)[C@H](C)NC(=O)[C@@H](N)Cc1ccc(O)cc1)[C@@H](C)CC)[C@@H](C)O)C(C)C)[C@@H](C)CC)C(=O)N[C@@H](CO)C(=O)N[C@@H](CCCNC(=N)N)C(N)=O [Example No. 3, [Ala^24, Nle^27]-hGRF(1-29)-NH2] (H-YADAIFTNSYRKVLGQLSARKLLADI[Nle]SR-NH2) | 1.345(0.595-2.068)
CCCC[C@H](NC(=O)[C@@H](NC(=O)[C@H](C)NC(=O)[C@H](CCC(N)=O)NC(=O)[C@H](CC(C)C)NC(=O)[C@H](CC(C)C)NC(=O)[C@H](CCCCN)NC(=O)[C@H](CCCNC(=N)N)NC(=O)[C@H](C)NC(=O)[C@H](CO)NC(=O)[C@H](CC(C)C)NC(=O)[C@H](CCC(N)=O)NC(=O)CNC(=O)[C@H](CC(C)C)NC(=O)[C@@H](NC(=O)[C@H](CCCCN)NC(=O)[C@H](CCCNC(=N)N)NC(=O)[C@H](Cc1ccc(O)cc1)NC(=O)[C@H](CO)NC(=O)[C@H](CC(N)=O)NC(=O)[C@@H](NC(=O)[C@H](Cc1ccccc1)NC(=O)[C@@H](NC(=O)[C@H](C)NC(=O)[C@H](CC(=O)O)NC(=O)[C@H](C)NC(=O)[C@@H](N)Cc1ccc(O)cc1)[C@@H](C)CC)[C@@H](C)O)C(C)C)[C@@H](C)CC)C(=O)N[C@@H](CO)C(=O)N[C@@H](CCCNC(=N)N)C(N)=O [Example No. 4, [Ala^25, Nle^27]-hGRF(1-29)-NH2] (H-YADAIFTNSYRKVLGQLSARKLLQAI[Nle]SR-NH2) | 1.34(0.837-2.190)
CC[C@H](C)[C@H](NC(=O)[C@H](C)NC(=O)[C@H](CC(=O)O)NC(=O)[C@H](C)NC(=O)[C@@H](N)Cc1ccc(O)cc1)C(=O)N[C@@H](Cc1ccccc1)C(=O)N[C@H](C(=O)N[C@@H](CC(N)=O)C(=O)N[C@@H](CO)C(=O)N[C@@H](Cc1ccc(O)cc1)C(=O)N[C@@H](CCCNC(=N)N)C(=O)N[C@@H](CCCCN)C(=O)N[C@H](C(=O)N[C@@H](CC(C)C)C(=O)NCC(=O)N[C@@H](CCC(N)=O)C(=O)N[C@@H](CC(C)C)C(=O)N[C@@H](CO)C(=O)N[C@@H](C)C(=O)N[C@@H](CCCNC(=N)N)C(=O)N[C@@H](CCCCN)C(=O)N[C@@H](CC(C)C)C(=O)N[C@@H](CC(C)C)C(=O)N[C@@H](CCC(N)=O)C(=O)N[C@@H](CC(=O)O)C(=O)N[C@H](C(=O)N[C@@H](CCSC)C(=O)N[C@@H](CO)C(=O)N[C@@H](CCCNC(=N)N)C(=O)N[C@@H](CCC(N)=O)C(=O)N[C@@H](CCC(N)=O)C(=O)NCC(=O)N[C@@H](CCC(=O)O)C(=O)N[C@@H](CO)C(=O)N[C@@H](CC(N)=O)C(=O)N[C@@H](CCC(N)=O)C(=O)N[C@@H](CCC(=O)O)C(=O)N[C@@H](CCCNC(=N)N)C(=O)NCC(=O)N[C@@H](C)C(=O)O)[C@@H](C)CC)C(C)C)[C@@H](C)O [hGRF(1-40)-OH, reference compound] | 1.0
[Ala^16, Nle^27 ]-hGRF(1-29)-NH2 (YADAIFTNSYRKVLGALSARKLLQDI[Nle]SR-NH2; N-terminus assumed; SMILES CCCC[C@H](NC(=O)[C@@H](NC(=O)[C@H](CC(=O)O)NC(=O)[C@H](CCC(N)=O)NC(=O)[C@H](CC(C)C)NC(=O)[C@H](CC(C)C)NC(=O)[C@H](CCCCN)NC(=O)[C@H](CCCNC(=N)N)NC(=O)[C@H](C)NC(=O)[C@H](CO)NC(=O)[C@H](CC(C)C)NC(=O)[C@H](C)NC(=O)CNC(=O)[C@H](CC(C)C)NC(=O)[C@@H](NC(=O)[C@H](CCCCN)NC(=O)[C@H](CCCNC(=N)N)NC(=O)[C@H](Cc1ccc(O)cc1)NC(=O)[C@H](CO)NC(=O)[C@H](CC(N)=O)NC(=O)[C@@H](NC(=O)[C@H](Cc1ccccc1)NC(=O)[C@@H](NC(=O)[C@H](C)NC(=O)[C@H](CC(=O)O)NC(=O)[C@H](C)NC(=O)[C@@H](N)Cc1ccc(O)cc1)[C@@H](C)CC)[C@@H](C)O)C(C)C)[C@@H](C)CC)C(=O)N[C@@H](CO)C(=O)N[C@@H](CCCNC(=N)N)C(N)=O) [Example No. 2] | 1.502(0.727-2.859)
